Data: a polymer gas permeability compilation

Question: What does the source list for *CN1CN(*)Cc2cc3c(cc21)C1c2ccccc2C3c2cc(*)c(*)cc21 (repeat unit)?
Answer: CH4 permeability: 562 Barrer; CO2 permeability: 6830 Barrer; H2 permeability: 6390 Barrer; N2 permeability: 409 Barrer; O2 permeability: 1900 Barrer

Question: With *c1ccc2c(-c3c(OC(C)=O)ccc4cc(N5C(=O)c6ccc(C(=O)c7ccc8c(c7)C(=O)N(*)C8=O)cc6C5=O)ccc34)c(OC(C)=O)ccc2c1 (repeat unit) as the compound, how does the CH4 permeability read?
Answer: 0.08 Barrer

Question: And the CO2 permeability?
Answer: 3.55 Barrer

Question: And the H2 permeability?
Answer: 4.67 Barrer

Question: And the N2 permeability?
Answer: 0.15 Barrer

Question: And the O2 permeability?
Answer: 0.92 Barrer

Question: With *Oc1c(C)cc(C(C)(C)c2cc(C)c(OC(=O)c3cccc(C(*)=O)c3)c(C)c2)cc1C (repeat unit) as the compound, how does the CH4 permeability read?
Answer: 0.472 Barrer

Question: What about the CO2 permeability of the same compound?
Answer: 12 Barrer

Question: And the H2 permeability?
Answer: 38.6 Barrer

Question: And the N2 permeability?
Answer: 0.579 Barrer

Question: And the O2 permeability?
Answer: 3.26 Barrer

Question: For *Oc1cc2c(cc1O*)C(C)(C)CC1(CC(C)(C)c3cc4c(cc3O1)Oc1c(C#N)c(*)c(*)c(C#N)c1O4)O2 (repeat unit), which CH4 permeability is on record?
Answer: 93 Barrer

Question: What about the CO2 permeability of the same compound?
Answer: 1540 Barrer

Question: And the H2 permeability?
Answer: 750 Barrer

Question: What about the N2 permeability of the same compound?
Answer: 61.5 Barrer

Question: What about the O2 permeability of the same compound?
Answer: 212 Barrer

Question: Which results are given for *C(=C(*)c1ccc(-c2ccc([Si](C)(C)C)cc2)cc1)c1ccccc1 (repeat unit)?
Answer: CH4 permeability: 450 Barrer; CO2 permeability: 2200 Barrer; H2 permeability: 810 Barrer; N2 permeability: 160 Barrer; O2 permeability: 390 Barrer

Question: What does the source list for *C/C=C(/Cl)C* (repeat unit)?
Answer: CH4 permeability: 3.28 Barrer; CO2 permeability: 25.6 Barrer; H2 permeability: 20.6 Barrer; N2 permeability: 2.07 Barrer; O2 permeability: 4 Barrer

Question: Which results are given for *c1ccc(C(C)(C)c2ccc(-n3c(=O)c4cc5c(=O)n(*)c(=O)c5cc4c3=O)cc2)cc1 (repeat unit)?
Answer: CH4 permeability: 0.901 Barrer; CO2 permeability: 26.9 Barrer; H2 permeability: 17 Barrer; N2 permeability: 1.5 Barrer; O2 permeability: 7.1 Barrer

Question: What does the source list for *c1ccc(Cc2ccc(N3C(=O)c4ccc(-c5ccc6c(c5)C(=O)N(*)C6=O)cc4C3=O)c(C)c2)cc1C (repeat unit)?
Answer: CH4 permeability: 0.0278 Barrer; CO2 permeability: 1.41 Barrer; N2 permeability: 0.0483 Barrer; O2 permeability: 0.369 Barrer

Question: With *c1ccc(Oc2ccc(N3C(=O)c4cc5c(cc4C3=O)S(=O)(=O)c3cc4c(cc3S5(=O)=O)C(=O)N(*)C4=O)cc2)cc1 (repeat unit) as the compound, how does the CH4 permeability read?
Answer: 0.18 Barrer

Question: And the CO2 permeability?
Answer: 9.6 Barrer

Question: And the H2 permeability?
Answer: 19 Barrer

Question: And the N2 permeability?
Answer: 0.27 Barrer

Question: And the O2 permeability?
Answer: 1.6 Barrer

Question: With *C(=C(*)c1ccc2c(c1)C(C)(C)CC2(C)C)c1ccccc1 (repeat unit) as the compound, how does the CH4 permeability read?
Answer: 29100 Barrer

Question: And the CO2 permeability?
Answer: 38700 Barrer

Question: What about the H2 permeability of the same compound?
Answer: 24800 Barrer

Question: What about the N2 permeability of the same compound?
Answer: 11600 Barrer

Question: And the O2 permeability?
Answer: 14400 Barrer

Question: For *CC(*)OCC1CCCCC1 (repeat unit), which CO2 permeability is on record?
Answer: 5.89 Barrer

Question: What about the N2 permeability of the same compound?
Answer: 0.4 Barrer

Question: And the O2 permeability?
Answer: 1.55 Barrer

Question: For *c1ccc(Cc2ccc(N3C(=O)c4ccc(-c5ccc6c(c5)C(=O)N(*)C6=O)cc4C3=O)c(Cl)c2)cc1Cl (repeat unit), which CH4 permeability is on record?
Answer: 0.0164 Barrer

Question: And the CO2 permeability?
Answer: 0.978 Barrer

Question: And the N2 permeability?
Answer: 0.0307 Barrer

Question: What about the O2 permeability of the same compound?
Answer: 0.26 Barrer

Question: What does the source list for *Oc1ccc(C23CC4CC(C2)CC(c2ccc(Oc5ccc(S(=O)(=O)c6ccc(*)cc6)cc5)cc2)(C4)C3)cc1 (repeat unit)?
Answer: CH4 permeability: 0.396 Barrer; CO2 permeability: 9.5 Barrer; H2 permeability: 27.8 Barrer; N2 permeability: 0.455 Barrer; O2 permeability: 2.55 Barrer

Question: Which results are given for *Oc1cc2c(cc1O*)C1(CC2(C)CC)c2cc3c(cc2C(C)(CC)C1C)Oc1c(C#N)c(*)c(*)c(C#N)c1O3 (repeat unit)?
Answer: CH4 permeability: 580 Barrer; CO2 permeability: 6100 Barrer; H2 permeability: 2100 Barrer; N2 permeability: 320 Barrer; O2 permeability: 820 Barrer

Question: For *C(=C(*)c1ccc(C[Si](C)(C)C)cc1)c1ccccc1 (repeat unit), which CH4 permeability is on record?
Answer: 120 Barrer

Question: What about the CO2 permeability of the same compound?
Answer: 640 Barrer

Question: And the H2 permeability?
Answer: 420 Barrer

Question: What about the N2 permeability of the same compound?
Answer: 44 Barrer

Question: And the O2 permeability?
Answer: 140 Barrer

Question: For *c1cccc(Oc2ccc(C(c3ccc(Oc4cccc(N5C(=O)c6ccc(C(c7ccc8c(c7)C(=O)N(*)C8=O)(C(F)(F)F)C(F)(F)F)cc6C5=O)c4)cc3)(C(F)(F)F)C(F)(F)F)cc2)c1 (repeat unit), which CH4 permeability is on record?
Answer: 0.136 Barrer

Question: And the CO2 permeability?
Answer: 6 Barrer

Question: And the H2 permeability?
Answer: 21 Barrer

Question: What about the N2 permeability of the same compound?
Answer: 0.241 Barrer

Question: What about the O2 permeability of the same compound?
Answer: 1.35 Barrer

Question: Which results are given for *C(=C(*)c1ccc2c(ccc3ccccc32)c1)c1ccc([Si](C)(C)C)cc1 (repeat unit)?
Answer: CH4 permeability: 500 Barrer; CO2 permeability: 2100 Barrer; H2 permeability: 900 Barrer; N2 permeability: 190 Barrer; O2 permeability: 460 Barrer

Question: For *Oc1ccc(C(C)(C)c2cccc(C(C)(C)c3ccc(Oc4ccc(S(=O)(=O)c5ccc(*)cc5)cc4)cc3)c2)cc1 (repeat unit), which CH4 permeability is on record?
Answer: 0.111 Barrer

Question: What about the CO2 permeability of the same compound?
Answer: 2.8 Barrer

Question: What about the H2 permeability of the same compound?
Answer: 10.6 Barrer

Question: What about the N2 permeability of the same compound?
Answer: 0.11 Barrer

Question: And the O2 permeability?
Answer: 0.69 Barrer

Question: Which CO2 permeability does the source give for *NCCCCCC(*)=O (repeat unit) here?
Answer: 0.165 Barrer

Question: And the O2 permeability?
Answer: 0.036 Barrer

Question: Which CO2 permeability does the source give for *CC(*)C#N (repeat unit) here?
Answer: 0.0018 Barrer

Question: What about the N2 permeability of the same compound?
Answer: 0.00016 Barrer

Question: And the O2 permeability?
Answer: 0.00028 Barrer
